Data taken from patent publication US9540358B2, “Tricyclic compounds as anticancer agents” (ICAHN SCHOOL OF MEDICINE AT MOUNT SINAI, priority 2011, dated 2017).

Key:
H1650 lung cancer cells = test: Cell viability assay (MTT, IC50 determination); assay type: cell-based; settings: Homo sapiens, NCI-H1650, 48 hours after drug treatment, MTT
H292 cells = test: Colony formation (clonogenic) assay, H292; assay type: cell-based; settings: 8 days
Procedure: (§1) Protocol for clonogenic assay follows Sangodkar et al. J Clin Invest 2012; 122:2637-51.
(§2) Cell culture and staining: For both A549luc and H292 cells, 500 cells were seeded into each well of a 6-well plate and allowed to attach for 24 hours before drug treatment. The following day, cells were treated with either the appropriate dose of drug or an equivalent volume of DMSO (two replicates were treated for each condition). For each condition, depleted media was replaced with fresh media containing the equivalent drug dose four days after initial treatment. Cells were harvested either 7 (A549luc) or 8 (H292) days after initial treatment. Briefly, media was aspirated from each well and the cells were washed twice with ice-cold PBS, then plates were allowed to dry at room temperature for 4 hours. Cells were fixed for one hour in a fixing solution consisting of 10% methanol and 10% glacial acetic acid in distilled water, then stained overnight in 1% (w/v) crystal violet dissolved in methanol. The next day, staining solution was aspirated from the wells and plates were washed gently with distilled water to remove excess stain before colony counting. Colonies were imaged on a ChemiDoc XRS+ (Bio-Rad) and images were exported as 8-bit TIFF files. Colonies were counted using the Colony Counter plugin in ImageJ, with colony size defined as between 4 and 400 square pixels, and minimum circularity set at 0.6. Duplicate wells were averaged to obtain a single value for each condition. Results (number of colonies) for A549luc cells are shown in Table 2 and results (number of colonies) for H292 cells are shown in Table 3: […]

A549luc cells = test: Colony formation (clonogenic) assay, A549luc; assay type: cell-based; settings: 7 days
Procedure: as §1, §2

naïve CD4 T cells = test: Treg induction from naïve CD4 T cells (Foxp3 expression); assay type: cell-based
Procedure: Example 30 has been tested for its ability to induce Treg from naïve CD4 T cells. […] Fifty thousand CD4 naïve cells (CD62Lhi, CD25 low, CD4 positive) were incubated with 2 ng/mL TGFβ, 1 ug/mL anti-CD3, 100 ng/mL IL-2, 50000 APCs per well and the compounds 10 μM, 5 μM and 2.5 μM concentrations. The cells were incubated for 3 days and then stained for CD4 and Foxp3 expression. Results were expressed as fold increase over the % induced in control (DMSO) wells (typically 20-25% Foxp3+). AKTi, a small molecule AKT inhibitor, was used as a positive control; it induced about a 4-fold increase. […] The effects of Example 30 on iTreg induction are amplified as the TGFβ concentration decreases.

EGFR-L858R/CCSP mice = test: In vivo lung cancer model; settings: i.p. 100 mg/kg every other day, two week treatment period, MRI; DMSO control 20% increase
Procedure: The in vivo lung cancer model is described in Politi et al., Genes Dev. Jun. 1, 2006 20: 1496-1510. EGFR-L858R/CCSP mice were fed doxycycline-impregnanted food pellets to induce tumor formation. After 8-12 weeks, mice were imaged in a Bruker 4.7T Biospec scanner to confirm lung nodule development. After tumor confirmation, the compound of Example 30 was prepared in DMSO (Sigma) and administered i.p. at 100 mg/kg every other day for two weeks. After treatment, the mice were re-imaged by MRI, and pre-treatment and post-treatment lung volumes were calculated by visible lung opacity present in each axial image using Osirix 4.1.1. DMSO control animals show a 20% increase in tumor volume over two week treatment period. Animals treated with the compound of Example 30 show a 60% decrease in tumor volume over two week treatment period.

[1] = tested on: BALB/c hearts transplanted into fully allogeneic B6 recipients; test: Heart allograft survival; assay type: in vivo, mice; settings: 100 mg/kg i.p., n=4, p<0.05 vs control; untreated rejected by day 8
Procedure: To test for a clinically relevant in vivo effect, BALB/c hearts were transplanted into fully allogeneic B6 recipients. While untreated animals rejected their grafts by day 8 n=4, the grafts in the mice treated with 100 mg/kg i.p. of Example 30 lasted 18 days n=4, p<0.05 vs control, a statistically and clinically significant effect.

alloreactive T cells = test: Suppression assay using induced Tregs; assay type: cell-based

`O=S(=O)(NCCCN1c2ccccc2CCc2ccc(Cl)cc21)c1ccc(OC(F)(F)F)cc1` [Example 30, N-(3-(3-chloro-10,11-dihydro-5H-dibenzo[b,f]azepin-5-yl)propyl)-4-(trifluoromethoxy)benzenesulfonamide] was tested, and the IC50 (H1650 lung cancer cells) was 12.6 µM, the number of colonies (H292 cells; 5 μM) was 95 and the number of colonies (H292 cells; 7.5 μM) was 74.5. The number of colonies (H292 cells; 10 μM) was 61, the number of colonies (A549luc cells; 5 μM) was 116 and the number of colonies (A549luc cells; 7.5 μM) was 111.5. The number of colonies (A549luc cells; 10 μM) was 67.5, the “fold increase in iTreg over control (DMSO) wells” value (naïve CD4 T cells; at 2.5 μM, 3 days, 2 ng/mL TGFβ) was “greater than 2 fold” and the “upregulation of Foxp3” value (naïve CD4 T cells; naïve polyclonal T cells treated with TGFβ and TCR transgenic T cells stimulated in vivo during costimulatory blockade) was “facilitated upregulation of Foxp3”. The “decrease in tumor volume” value (EGFR-L858R/CCSP mice) was 60%, the heart graft survival [1] was 18 days and the “suppressive capacity of iTreg induced with or without compound (% inhibition of maximal proliferation)” value (alloreactive T cells) was “equivalent suppressive capacity”.
